Reference: publication PMC7933434, “Entropy-driven binding of gut bacterial β-glucuronidase inhibitors ameliorates irinotecan-induced toxicity” (Communications Biology, 2021)
Values joined by “and” are separate entries in the source; they are usually repeats but may differ in a detail not shown here. Equal entries are not always repeated. “Also recorded” adds a separate entry of the source.

Experiments:
[1] = molecular target: EcGUS (Escherichia coli, UniProt P05804); assay: Isothermal titration calorimetry, EcGUS; format: binding; conditions: for entropy contribution to binding: sign (positive = favourable); for Kd / ΔG / ΔH / —TΔS: 298 K
EcGUS, sequence (P05804 whole entry): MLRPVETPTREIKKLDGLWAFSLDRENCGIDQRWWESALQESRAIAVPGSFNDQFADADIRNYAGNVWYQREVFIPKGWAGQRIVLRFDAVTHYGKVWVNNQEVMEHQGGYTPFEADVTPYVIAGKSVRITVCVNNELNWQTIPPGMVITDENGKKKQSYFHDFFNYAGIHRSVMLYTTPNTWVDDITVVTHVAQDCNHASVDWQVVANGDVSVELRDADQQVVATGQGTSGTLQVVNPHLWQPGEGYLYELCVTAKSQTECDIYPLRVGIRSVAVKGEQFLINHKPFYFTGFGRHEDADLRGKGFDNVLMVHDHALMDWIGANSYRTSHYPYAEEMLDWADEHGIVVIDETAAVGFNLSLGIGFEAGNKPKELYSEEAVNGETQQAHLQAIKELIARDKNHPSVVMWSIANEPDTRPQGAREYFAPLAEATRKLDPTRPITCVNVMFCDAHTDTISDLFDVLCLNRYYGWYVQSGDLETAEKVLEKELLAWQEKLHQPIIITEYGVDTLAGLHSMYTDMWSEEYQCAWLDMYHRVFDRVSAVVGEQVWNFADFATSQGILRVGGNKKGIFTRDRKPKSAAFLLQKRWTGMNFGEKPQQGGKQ

[2] = molecular target: EcGUS (Escherichia coli GUS) (Escherichia coli, UniProt P05804); assay: biochemical
EcGUS (Escherichia coli GUS), sequence (P05804 whole entry): as above

[3] = molecular target: T1, GUS activity in live E. coli cells (Escherichia coli, UniProt P05804); assay: GUS activity in live E. coli cells; format: cell-based; conditions: E. coli cells (OD600 = 1.89) treated for 30 min, then GUS activity measured
T1 construct: endogenous in cells
T1 sequence (P05804 whole entry): as above
Method: To examine if inhibitors 2–4 could inhibit GUS activity in vivo, E. coli cells (OD600 = 1.89) were treated with each of 2–4 for 30 min, after which GUS activity was measured. […]; 3, 18.6 nM; and 4, 3.69 nM (Supplementary Fig. 9a). […]. […] Additionally, to evaluate cell viability, E. coli cultures were treated with ampicillin (positive control), DMSO, or inhibitors 2–4 (100 μM) for 6 h.
Supplementary Figure 9 Inhibitors 2–4 sho w in hi biti on ag ai n st G US acti vity in l i ve E. co li cell s. (a) GUS activity was measured in live E. coli. Af t e r E. coli were incubated with DMSO or an inhibitor ( 2–4), GUS activity was measured using 4-methylumbelliferyl-β-glucuronide as the substrate. The release of fluorescent 4-methylumbelliferone was detected at 445 nm (excitation, 345 nm). Compared with the negative c ont rol (DMSO ), […]
[…]. (b) Colony formation assay. None of the inhibitors affected bacterial growth. As a negative control, E. coli cells were incubated with ampicillin (100 μg/mL). Results are expressed as the mean of triplicate samples ± SEM.
(1 picture or pasted object on this page, not shown here)

[4] = molecular target: BdGUS (Bifidobacterium dentium GUS) (Bifidobacterium dentium, UniProt D2Q7B1); assay: biochemical; set-up: GUS activity (hydrolysis rate of MUG) / 1/v: unit not given here; conditions: for Ki: BdGUS, 50 mM HEPES pH 7.5, 37 °C
BdGUS (Bifidobacterium dentium GUS), sequence (D2Q7B1 1-668): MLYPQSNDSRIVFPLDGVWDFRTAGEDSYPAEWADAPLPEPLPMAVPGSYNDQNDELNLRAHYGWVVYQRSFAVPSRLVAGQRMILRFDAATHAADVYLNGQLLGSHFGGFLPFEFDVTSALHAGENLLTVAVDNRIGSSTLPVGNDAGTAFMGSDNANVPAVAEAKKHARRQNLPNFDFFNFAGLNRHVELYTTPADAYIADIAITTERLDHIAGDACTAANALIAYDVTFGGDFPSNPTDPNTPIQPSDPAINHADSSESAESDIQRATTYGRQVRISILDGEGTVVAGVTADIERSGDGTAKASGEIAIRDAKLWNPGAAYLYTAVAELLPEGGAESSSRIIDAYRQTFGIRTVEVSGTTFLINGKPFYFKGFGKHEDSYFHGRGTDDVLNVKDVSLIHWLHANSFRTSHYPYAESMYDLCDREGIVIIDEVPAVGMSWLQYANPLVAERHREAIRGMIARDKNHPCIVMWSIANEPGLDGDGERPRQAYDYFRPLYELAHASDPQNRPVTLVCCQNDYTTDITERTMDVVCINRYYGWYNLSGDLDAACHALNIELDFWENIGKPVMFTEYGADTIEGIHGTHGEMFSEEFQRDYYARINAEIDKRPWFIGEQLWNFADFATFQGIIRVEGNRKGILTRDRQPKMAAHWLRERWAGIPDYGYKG

[5] = molecular target: BdGUS (Bifidobacterium dentium, UniProt D2Q7B1); assay: biochemical; format: binding
BdGUS, sequence (D2Q7B1 entry or part of it): as the sequence (D2Q7B1 1-668) above

[6] = EcGUS, Tris buffer (250 mM NaCl, 20 mM Tris, pH 8.0)
[7] = EcGUS, phosphate buffer (250 mM NaCl, 20 mM KH2PO4, 100 mM Na2HPO4, pH 8.0)
[8] = source data of Table 1, from plot of apparent Km against [inhibitor] (μM)
[9] = [Inhibitor 2] = 3.75 μM, [MUG] 0.375 mM
[10] = [Inhibitor 2] = 3.75 μM, [MUG] 0.75 mM
[11] = [Inhibitor 2] = 3.75 μM, [MUG] 1.5 mM
[12] = [Inhibitor 2] = 3.75 μM, [MUG] 3 mM
[13] = [Inhibitor 2] = 7.5 μM, [MUG] 0.375 mM
[14] = [Inhibitor 2] = 7.5 μM, [MUG] 0.75 mM
[15] = [Inhibitor 2] = 7.5 μM, [MUG] 1.5 mM
[16] = [Inhibitor 2] = 7.5 μM, [MUG] 3 mM
[17] = [Inhibitor 2] = 15 μM, [MUG] 0.375 mM
[18] = [Inhibitor 2] = 15 μM, [MUG] 0.75 mM
[19] = [Inhibitor 2] = 15 μM, [MUG] 1.5 mM
[20] = [Inhibitor 2] = 15 μM, [MUG] 3 mM
[21] = [Inhibitor 2] = 30 μM, [MUG] 0.375 mM
[22] = [Inhibitor 2] = 30 μM, [MUG] 0.75 mM
[23] = [Inhibitor 2] = 30 μM, [MUG] 1.5 mM
[24] = [Inhibitor 2] = 30 μM, [MUG] 3 mM
[25] = BdGUS, Tris buffer (250 mM NaCl, 20 mM Tris, pH 8.0), 298 K
[26] = [Inhibitor 3] = 0.25 μM, [MUG] 0.375 mM
[27] = [Inhibitor 3] = 0.25 μM, [MUG] 0.75 mM
[28] = [Inhibitor 3] = 0.25 μM, [MUG] 1.5 mM
[29] = [Inhibitor 3] = 0.25 μM, [MUG] 3 mM
[30] = [Inhibitor 3] = 0.5 μM, [MUG] 0.375 mM
[31] = [Inhibitor 3] = 0.5 μM, [MUG] 0.75 mM
[32] = [Inhibitor 3] = 0.5 μM, [MUG] 1.5 mM
[33] = [Inhibitor 3] = 0.5 μM, [MUG] 3 mM
[34] = [Inhibitor 3] = 1 μM, [MUG] 0.375 mM
[35] = [Inhibitor 3] = 1 μM, [MUG] 0.75 mM
[36] = [Inhibitor 3] = 1 μM, [MUG] 1.5 mM
[37] = [Inhibitor 3] = 1 μM, [MUG] 3 mM
[38] = [Inhibitor 3] = 2 μM, [MUG] 0.375 mM
[39] = [Inhibitor 3] = 2 μM, [MUG] 0.75 mM
[40] = [Inhibitor 3] = 2 μM, [MUG] 1.5 mM
[41] = [Inhibitor 3] = 2 μM, [MUG] 3 mM

## CCC[C@@H]1NC[C@@H](O)[C@H](O)[C@H]1C(=O)O [Inhibitor 2, C6-propyl UIFG]
[1]; EcGUS in Tris buffer
  ΔΔH1–2 (enthalpy penalty of 2 relative to 1): +6.2 kcal mol^−1
  –TΔΔS1–2 (2 relative to 1): –5.6 kcal mol^−1
  entropy contribution to binding: +7.1 kcal mol^−1
[1]; EcGUS in phosphate buffer
  ΔΔH1–2 (enthalpy penalty of 2 relative to 1): +5.5 kcal mol^−1
  –TΔΔS1–2 (2 relative to 1): –4.6 kcal mol^−1
  entropy contribution to binding: +5.0 kcal mol^−1
[1]; [6]
  Kd: 0.06 ± 0.0049 µM
  ΔG: –10.01 ± 0.58 kcal/mol
  ΔH: –2.90 ± 0.23 kcal/mol
  —TΔS: –7.11 ± 0.82 kcal/mol
[1]; [7]
  Kd: 0.28 ± 0.05 µM
  ΔG: –8.96 ± 0.09 kcal/mol
  ΔH: –3.99 ± 0.06 kcal/mol
  —TΔS: –4.97 ± 0.15 kcal/mol
[2]; 50 mM HEPES pH 7.5, 37 °C
  Ki: 0.035 ± 0.009 µM
[2]; [8]
  Ki: 0.0352 µM
[3]
  IC50: 1.2 µM
[4]
  Ki: 4.9 ± 1.2 µM
[4]; [9]
  1/v: 0.7586 and 0.7898 and 0.7689
  GUS activity (hydrolysis rate of MUG): 0.2944 and 0.2827 and 0.2904
[4]; [10]
  1/v: 0.5053 and 0.4969 and 0.4765
  GUS activity (hydrolysis rate of MUG): 0.4419 and 0.4494 and 0.4686
[4]; [11]
  1/v: 0.3454 and 0.3517 and 0.3523
  GUS activity (hydrolysis rate of MUG): 0.6465 and 0.6349 and 0.6338
[4]; [12]
  1/v: 0.3078 and 0.2975 and 0.297
  GUS activity (hydrolysis rate of MUG): 0.7254 and 0.7507 and 0.7517
[4]; [13]
  1/v: 0.9443 and 1.067 and 1.0389
  GUS activity (hydrolysis rate of MUG): 0.2365 and 0.2092 and 0.2149
[4]; [14]
  1/v: 0.6301 and 0.6229 and 0.6281
  GUS activity (hydrolysis rate of MUG): 0.3544 and 0.3585 and 0.3555
[4]; [15]
  1/v: 0.4203 and 0.4167 and 0.4011
  GUS activity (hydrolysis rate of MUG): 0.5313 and 0.5358 and 0.5568
[4]; [16]
  1/v: 0.3397 and 0.3356 and 0.3208
  GUS activity (hydrolysis rate of MUG): 0.6574 and 0.6654 and 0.6962
[4]; [17]
  1/v: 1.396 and 1.589 and 1.568
  GUS activity (hydrolysis rate of MUG): 0.1599 and 0.1405 and 0.1424
[4]; [18]
  1/v: 0.9143 and 0.8906 and 0.8101
  GUS activity (hydrolysis rate of MUG): 0.2442 and 0.2507 and 0.2757
[4]; [19]
  1/v: 0.5734 and 0.5628 and 0.516
  GUS activity (hydrolysis rate of MUG): 0.3894 and 0.3968 and 0.4327
[4]; [20]
  1/v: 0.4154 and 0.412 and 0.4013
  GUS activity (hydrolysis rate of MUG): 0.5375 and 0.5419 and 0.5564
[4]; [21]
  1/v: 2.375 and 2.7756 and 2.7044
  GUS activity (hydrolysis rate of MUG): 0.09401 and 0.08045 and 0.08257
[4]; [22]
  1/v: 1.493 and 1.508 and 1.184
  GUS activity (hydrolysis rate of MUG): 0.1495 and 0.1481 and 0.1887
[4]; [23]
  1/v: 0.8717 and 0.8385 and 0.8277
  GUS activity (hydrolysis rate of MUG): 0.2562 and 0.2663 and 0.2698
[4]; [24]
  1/v: 0.5634 and 0.5659 and 0.5111
  GUS activity (hydrolysis rate of MUG): 0.3964 and 0.3946 and 0.4369
[5]; BdGUS in Tris buffer
  ΔΔH1–2 (enthalpy penalty of 2 relative to 1): +8.5 kcal mol^−1
  –TΔΔS1–2 (2 relative to 1): -6.2 kcal/mol
[5]; BdGUS in Tris buffer, sign (positive = favourable)
  entropy contribution to binding: +4.6 kcal mol^−1
[5]; [25]
  Kd: 14.5 ± 3.55 µM
  ΔG: –6.60 ± 0.15 kcal/mol
  ΔH: –1.97 ± 0.15 kcal/mol
  —TΔS: –4.64 ± 0.30 kcal/mol

## CCCCCC[C@@H]1NC[C@@H](O)[C@H](O)[C@H]1C(=O)O [Inhibitor 3, C6-hexyl UIFG]
[1]; [6]
  ΔH: Essentially no enthalpy change was evident; also recorded: close to zero
[1]; EcGUS, phosphate buffer
  ΔΔH relative to 2 (ΔΔH2–3, ΔΔH2–4): +0.04 kcal mol^−1
  –TΔΔS relative to 2 (–TΔΔS2–3, –TΔΔS2–4): –1.32 kcal mol^−1
[1]; [7]
  Kd: 0.03 ± 0.01 µM
  ΔG: –10.24 ± 0.18 kcal/mol
  ΔH: –3.95 ± 0.06 kcal/mol
  —TΔS: –6.29 ± 0.13 kcal/mol
[2]; 50 mM HEPES pH 7.5, 37 °C
  Ki: 0.003 ± 0.0006 µM
[2]; [8]
  Ki: 0.00316 µM
[3]
  IC50: 0.0186 µM
[4]
  Ki: 0.86 ± 0.2 µM
[4]; [26]
  1/v: 0.8098 and 0.8436 and 0.8112
  GUS activity (hydrolysis rate of MUG): 0.2757 and 0.2647 and 0.2753
[4]; [27]
  1/v: 0.4851 and 0.501 and 0.4979
  GUS activity (hydrolysis rate of MUG): 0.4603 and 0.4457 and 0.4485
[4]; [28]
  1/v: 0.3326 and 0.3553 and 0.3441
  GUS activity (hydrolysis rate of MUG): 0.6714 and 0.6286 and 0.649
[4]; [29]
  1/v: 0.2934 and 0.2936 and 0.2832
  GUS activity (hydrolysis rate of MUG): 0.761 and 0.7606 and 0.7885
[4]; [30]
  1/v: 1.013 and 1.039 and 0.9379
  GUS activity (hydrolysis rate of MUG): 0.2203 and 0.2148 and 0.2381
[4]; [31]
  1/v: 0.5713 and 0.5847 and 0.5765
  GUS activity (hydrolysis rate of MUG): 0.3909 and 0.3819 and 0.3873
[4]; [32]
  1/v: 0.386 and 0.3868 and 0.3898
  GUS activity (hydrolysis rate of MUG): 0.5784 and 0.5773 and 0.5728
[4]; [33]
  1/v: 0.2997 and 0.3073 and 0.3039
  GUS activity (hydrolysis rate of MUG): 0.7451 and 0.7267 and 0.7347
[4]; [34]
  1/v: 1.333 and 1.373 and 1.236
  GUS activity (hydrolysis rate of MUG): 0.1676 and 0.1627 and 0.1806
[4]; [35]
  1/v: 0.7658 and 0.7424 and 0.7331
  GUS activity (hydrolysis rate of MUG): 0.2916 and 0.3008 and 0.3046
[4]; [36]
  1/v: 0.4723 and 0.4867 and 0.4608
  GUS activity (hydrolysis rate of MUG): 0.4727 and 0.4588 and 0.4846
[4]; [37]
  1/v: 0.3528 and 0.337 and 0.3348
  GUS activity (hydrolysis rate of MUG): 0.6328 and 0.6626 and 0.667
[4]; [38]
  1/v: 1.957 and 1.888 and 1.908
  GUS activity (hydrolysis rate of MUG): 0.1141 and 0.1183 and 0.117
[4]; [39]
  1/v: 1.031 and 0.9985 and 1.0212
  GUS activity (hydrolysis rate of MUG): 0.2167 and 0.2236 and 0.2187
[4]; [40]
  1/v: 0.6082 and 0.615 and 0.6155
  GUS activity (hydrolysis rate of MUG): 0.3672 and 0.3631 and 0.3628
[4]; [41]
  1/v: 0.4308 and 0.4219 and 0.4288
  GUS activity (hydrolysis rate of MUG): 0.5183 and 0.5293 and 0.5208
[5]; [25]
  ΔH: Essentially no enthalpy change was evident
